Molecular target: T1, GST-tagged-Wee1 kinase (Homo sapiens, UniProt P30291)
T1 construct: purchased Carnabio 05-177
Assay: Wee1 time-resolved fluorescence equilibrium binding assay (displacement of Oregon Green-labeled ATP-competitive probe)
Conditions: TR-FRET probe displacement; 2 nM GST-Wee1, 300 nM probe, 1 hour incubation; read-out: Wee-1 binding (Ki nM)
Description: Wee1 kinase was assayed using a time-resolved fluorescence equilibrium binding assay monitoring displacement of a rapidly reversible Oregon Green-labeled ATP-competitive kinase probe (N-(2-(2-(2-(4-(4-(5-chloro-4-(2-(1-hydroxycyclobutyl)thiazol-5-yl)-1H-pyrrolo[2,3-b]pyridin-2-yl)phenyl)piperazin-1-yl)ethoxy)ethoxy)ethyl)-2′,7′-difluoro-3′,6′-dihydroxy-3-oxo-3H-spiro[isobenzofuran-1,9′-xanthene]-5-carboxamide) by competitive Wee1 inhibitors.

T1 sequence (P30291 whole entry): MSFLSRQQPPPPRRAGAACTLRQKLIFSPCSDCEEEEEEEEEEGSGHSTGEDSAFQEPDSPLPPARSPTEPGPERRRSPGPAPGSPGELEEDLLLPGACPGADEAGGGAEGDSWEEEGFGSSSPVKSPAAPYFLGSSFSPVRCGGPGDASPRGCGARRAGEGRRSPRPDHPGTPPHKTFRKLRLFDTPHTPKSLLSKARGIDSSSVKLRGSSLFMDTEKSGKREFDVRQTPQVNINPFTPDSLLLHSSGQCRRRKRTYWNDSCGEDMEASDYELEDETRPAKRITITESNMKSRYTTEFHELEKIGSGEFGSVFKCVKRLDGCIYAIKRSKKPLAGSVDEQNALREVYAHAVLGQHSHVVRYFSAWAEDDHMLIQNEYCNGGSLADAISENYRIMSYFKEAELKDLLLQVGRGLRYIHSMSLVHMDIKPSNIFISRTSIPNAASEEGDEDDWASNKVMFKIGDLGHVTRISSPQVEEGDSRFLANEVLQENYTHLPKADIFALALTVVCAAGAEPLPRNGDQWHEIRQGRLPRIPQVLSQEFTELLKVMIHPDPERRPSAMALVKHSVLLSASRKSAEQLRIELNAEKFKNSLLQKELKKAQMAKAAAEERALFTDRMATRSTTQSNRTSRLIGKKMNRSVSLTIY

Row | SMILES | Ki [nM]
1 | C=CCN1c2ncccc2-c2nc(Nc3ccc(N4CCNCC4)c(F)c3)ncc2S1(=O)=O [Example 36, 6-allyl-N-[3-fluoro-4-(piperazin-1-yl)phenyl]-6H-pyrido[2,3-c]pyrimido[4,5-e][1,2]thiazin-2-amine 5,5-dioxide] | 9
2 | C=CCN1c2ncccc2-c2nc(Nc3ccc(N4CCNCC4)c(C(F)(F)F)c3)ncc2S1(=O)=O [Example 51, 6-allyl-N-[4-(piperazin-1-yl)-3-(trifluoromethyl)phenyl]-6H-pyrido[2,3-c]pyrimido[4,5-e][1,2]thiazin-2-amine 5,5-dioxide] | 14
3 | CCCN1c2cc(C(=O)NCc3cccnc3)ccc2-c2nc(Nc3ccc(N4CCN(C)CC4)cc3)ncc2S1(=O)=O [Example 87, 2-{[4-(4-methylpiperazin-1-yl)phenyl]amino}-6-propyl-N-(pyridin-3-ylmethyl)-6H-pyrimido[5,4-c][2,1]benzothiazine-8-carboxamide 5,5-dioxide] | 5
4 | CCCN1c2cc(C(N)=O)ccc2-c2nc(Nc3ccc(N4CCN(C)CC4)cc3)ncc2S1(=O)=O [Example 79, 2-{[4-(4-methylpiperazin-1-yl)phenyl]amino}-6-propyl-6H-pyrimido[5,4-c][2,1]benzothiazine-8-carboxamide 5,5-dioxide] | 6
5 | C=CCN1c2ncccc2-c2nc(Nc3ccc(N4CCN(C)CC4)c(Cl)c3)ncc2S1(=O)=O [Example 41, 6-allyl-N-[3-chloro-4-(4-methylpiperazin-1-yl)phenyl]-6H-pyrido[2,3-c]pyrimido[4,5-e][1,2]thiazin-2-amine 5,5-dioxide] | 2370
6 | CCCN1c2ccc(-c3ccccc3CN(C)C)cc2-c2nc(Nc3ccc(N4CCN(C)CC4)cc3)ncc2S1(=O)=O [Example 101, 9-{2-[(dimethylamino)methyl]phenyl}-N-[4-(4-methylpiperazin-1-yl)phenyl]-6-propyl-6H-pyrimido[5,4-c][2,1]benzothiazin-2-amine 5,5-dioxide] | 7.6
7 | C=CCN1c2ccccc2-c2nc(Nc3ccc(N4CCC(C)CC4)cc3)ncc2S1(=O)=O [Example 9, 6-allyl-N-[4-(4-methylpiperidin-1-yl)phenyl]-6H-pyrimido[5,4-c][2,1]benzothiazin-2-amine 5,5-dioxide] | 50
8 | C=CCN1c2ncccc2-c2nc(Nc3ccc4c(c3)N(C(C)=O)CC4)ncc2S1(=O)=O [Example 35, 1-{6-[(6-allyl-5,5-dioxido-6H-pyrido[2,3-c]pyrimido[4,5-e][1,2]thiazin-2-yl)amino]-2,3-dihydro-1H-indol-1-yl}ethanone] | 48
9 | C=CCN1c2ccccc2-c2nc(Nc3ccc(-c4ccncc4)cc3)ncc2S1(=O)=O [Example 7, 6-allyl-N-[4-(pyridin-4-yl)phenyl]-6H-pyrimido[5,4-c][2,1]benzothiazin-2-amine 5,5-dioxide] | 1230
10 | CN1CCN(c2ccc(Nc3ncc4c(n3)-c3sccc3N(C)S4(=O)=O)cc2)CC1 [Example 55, 6-methyl-N-[4-(4-methylpiperazin-1-yl)phenyl]-6H-pyrimido[4,5-e]thieno[3,2-c][1,2]thiazin-2-amine 5,5-dioxide] | 8

More lines, in order of falling Ki, values ahead:

Row | Ki [nM] | SMILES
11 | 5 | C=CCN1c2ncccc2-c2nc(Nc3ccc(C4CCNCC4)cc3)ncc2S1(=O)=O [Example 37, 6-allyl-N-[4-(piperidin-4-yl)phenyl]-6H-pyrido[2,3-c]pyrimido[4,5-e][1,2]thiazin-2-amine 5,5-dioxide]
12 | 3 | CCCN1c2cc(-c3cnc(N)nc3)ccc2-c2nc(Nc3ccc(N4CCN(C)CC4)cc3)ncc2S1(=O)=O [Example 73, 8-(2-aminopyrimidin-5-yl)-N-[4-(4-methylpiperazin-1-yl)phenyl]-6-propyl-6H-pyrimido[5,4-c][2,1]benzothiazin-2-amine 5,5-dioxide]
13 | 3 | C=CCN1c2ncccc2-c2nc(Nc3ccc(C4CCNC4)cc3)ncc2S1(=O)=O (stereo not drawn) [Example 45, 6-allyl-N-[4-(pyrrolidin-3-yl)phenyl]-6H-pyrido[2,3-c]pyrimido[4,5-e][1,2]thiazin-2-amine 5,5-dioxide]
14 | 2 | C=CCN1c2ncccc2-c2nc(Nc3ccc(N4CCN5CCCC5C4)cc3)ncc2S1(=O)=O (stereo not drawn) [Example 48, 6-allyl-N-[4-(hexahydropyrrolo[1,2-a]pyrazin-2(1H)-yl)phenyl]-6H-pyrido[2,3-c]pyrimido[4,5-e][1,2]thiazin-2-amine 5,5-dioxide]
15 | 2 | C=CCN1c2ncccc2-c2nc(Nc3ccc4c(c3)CCNC4)ncc2S1(=O)=O [Example 46, 6-allyl-N-(1,2,3,4-tetrahydroisoquinolin-6-yl)-6H-pyrido[2,3-c]pyrimido[4,5-e][1,2]thiazin-2-amine 5,5-dioxide]
16 | 1.8 | C=CCN1c2ccccc2-c2nc(Nc3ccc(N4CCN(C)CC4)cc3)ncc2S1(=O)=O [Example 1, 6-allyl-N-[4-(4-methylpiperazin-1-yl)phenyl]-6H-pyrimido[5,4-c][2,1]benzothiazin-2-amine 5,5-dioxide]
17 | 1.7 | C=CCN1c2ccccc2-c2nc(Nc3ccc4c(c3)CN(C)CC4(C)C)ncc2S1(=O)=O [Example 22, 6-allyl-N-(2,4,4-trimethyl-1,2,3,4-tetrahydroisoquinolin-7-yl)-6H-pyrimido[5,4-c][2,1]benzothiazin-2-amine 5,5-dioxide]
18 | 1.3 | C=CCN1c2ncccc2-c2nc(Nc3ccc4c(c3)CN(C)CC43CC3)ncc2S1(=O)=O [Example 47, 6-allyl-N-(2′-methyl-2′,3′-dihydro-1′H-spiro[cyclopropane-1,4′-isoquinolin]-7′-yl)-6H-pyrido[2,3-c]pyrimido[4,5-e][1,2]thiazin-2-amine 5,5-dioxide]

Reference: patent US8716297B2, “Chemical entities to be used for Wee1 inhibition for the treatment of cancer” (AbbVie Inc., priority 2011, dated 2014)
